Measurements taken from patent US12616713B2, “Methods for enhancing vascular density” (priority 2016, dated 2026).

What was measured:
HUVECs [1] = assay: VEGF-mediated transwell migration assay, HUVECs; format: cell-based, human; settings: NMN 500 μM versus PBS
[2] = system: MLECs from WT and ESKO mice; assay: Spheroid sprouting assay, MLECs; format: cell-based, mouse; settings: WT versus ESKO MLECs, C2C12 CM, NMN 0.5 mM
Protocol: (§1) ECs spheroids were generated as described previously (Korff and Augustin, 1998, J Cell Biol 143, 1341-1352). ECs (1000 cells per spheroid) were suspended in EGM-2 medium containing 20% methocel (viscosity: 4000 cps, Sigma) and seeded in non-adherent round-bottom 96-well plates (Sigma). Under these conditions all suspended cells contributed to the formation of a single spheroid. The spheroids were harvested after 24 h embedded into collagen gels. Sprouting was initiated by adding C2C12 CM or EBM-2 medium containing VEGF (50 ng/mL). NMN (0.5 mM), NaHS (0.1 mM), DAPT (20 μM, Cayman Chemical) or SU5416 (10 μM, Sigma) were added to the media wherever mentioned. Angiogenic activity was quantified by measuring the sprout length that had grown out of each spheroid analyzing 8-10 spheroids per group.

HAECs = assay: Spheroid sprouting assay, HAECs; format: cell-based, human
Protocol: as §1

[3] = system: human aortic endothelial cells (HAECs); assay: Tube formation assay, HAECs; format: cell-based
Protocol: Formation of tube networks was assessed as described before (Borradaile and Pickering, 2009, Aging Cell 8, 100-112). ECs were seeded at 10,000 cells per well in a 24-well plate (Corning) coated with 150 μL Cultrex reduced growth factor basement membrane extract (Trevigen). The cells were supplemented with C2C12 CM or EBM-2 medium containing VEGF (30 ng/mL) or FGF (30 ng/mL). […] Following an 18 h-incubation, resulting tube networks were analyzed by light microscopy (Nikon Eclipse TiE). For tube formation assays with H2O2 treatment, cells were incubated with 150 μM H2O2 for 1 h before seeding and imaged after 10 h-incubation. The number of branch points and total length of tubule networks were quantified by ImageJ software.

HUVECs [4] = assay: Tube formation assay, HUVECs after H2O2; format: cell-based, human; settings: H2O2 150 μM 1 h, NMN 500 μM 10 h
Protocol: Formation of tube networks was assessed as described before (Borradaile and Pickering, 2009, Aging Cell 8, 100-112). ECs were seeded at 10,000 cells per well in a 24-well plate (Corning) coated with 150 μL Cultrex reduced growth factor basement membrane extract (Trevigen). The cells were supplemented with C2C12 CM or EBM-2 medium containing VEGF (30 ng/mL) or FGF (30 ng/mL). NMN (0.5 mM) and NaHS (0.1 mM) were added to the media wherever mentioned. Following an 18 h-incubation, resulting tube networks were analyzed by light microscopy (Nikon Eclipse TiE). For tube formation assays with H2O2 treatment, cells were incubated with 150 μM H2O2 for 1 h before seeding and imaged after 10 h-incubation. The number of branch points and total length of tubule networks were quantified by ImageJ software.

C57BL/6J mice = assay: Post-exercise blood lactate; format: in vivo, mouse; settings: 20-month old mice
Protocol: Mice were fasted for 6 h and blood glucose levels were measured by tail bleed (Accu Check Performa, Roche). Blood lactate was measured before and immediately after treadmill exercise training for 20 minutes at 15 meters/minute by tail bleed (Accutrend Plus, Roche). For VEGF analysis, whole blood was drawn from the retroorbital sinus under brief isoflurane anesthesia. The serum was collected and assayed for VEGF expression by ELISA (Eve Technologies, Canada). Urine was collected after a 2 h fast and analyzed for creatinine levels using a colorimetric assay kit (Cayman chemical, US) as per manufacturer's protocol.

[5] = system: aortic rings from 18-month old mice; assay: Aortic ring assay (ex vivo angiogenesis); format: cell-based, mouse; settings: 18-month old WT mice, VEGF 30 ng/mL, NMN 0.5 mM, 7 days, versus PBS
Protocol: Aortic ring assay was performed according to the published protocol (Baker et al., 2012, Nat Protoc 7, 89-104). Briefly, thoracic aortas from mice were excised and transferred to Opti-MEM media. All extraneous fat, tissue and branching vessels were removed with forceps and a scalpel under a dissection microscope. The aortas were cut into ˜0.5 mm wide rings and serum starved overnight by incubating in Opti-MEM at 37° C./5% CO2. Next day, each aortic ring was embedded in 50 μL collagen matrix in a 96-well plate and incubated at 37° C./5% CO2 for 1 h. After embedding, the vessel sprouting was stimulated by supplementing the rings with 150 μL of Opti-MEM culture containing FBS (2.5%), with or without VEGF (30 ng/mL), or FGF (30 ng/mL) and incubating at 37° C./5% CO2 for 7 days. NMN (500 μM) was added to the media wherever mentioned and replaced every 3 days. The resulting sprouts were stained with BS1 lectin-FITC (Sigma) and imaged using fluorescence microscope. The number and total area of sprouts originating from aortic rings were quantified by ImageJ software.

[6] = NMN and VEGF (30 ng/mL) cotreatment of HAECs, compared to VEGF alone

NC(=O)c1ccc[n+]([C@@H]2O[C@H](COP(=O)([O-])O)[C@@H](O)[C@H]2O)c1 [NMN, nicotinamide mononucleotide]
motility in response to VEGF (migrated cells) (HUVECs [1]): promoted | ability of NMN to stimulate spheroid sprouting, dependence on SIRT1 [2]: SIRT1-dependent | ability of NMN to stimulate spheroid sprouting, dependence on SIRT1 (HAECs; NT or SIRT1 siRNA, VEGF 50 ng/mL, NMN 0.5 mM): SIRT1-dependent | rescue of SU5416-blocked sprouting (HAECs; SU5416 10 μM plus NMN 0.5 mM): not rescued | VEGF-mediated spheroid sprouting after knockdown of SIRT3 and SIRT6 (HAECs; T3 or T6 siRNA, VEGF, NMN 0.5 mM): partially rescued | number of branch points and total length of tubes ([3]; NMN 10 μM, 100 μM or 500 μM versus PBS): steadily increased | increase in number of branch points [3, 6]: 32% | increase in tubule length [3, 6]: 15% | increase in number of branch points ([3]; NMN itself, without VEGF): 25% | ability of NMN to stimulate tube formation, dependence on SIRT1 ([3]; NT or SIRT1 siRNA, VEGF 30 ng/mL, NMN 0.5 mM): SIRT1-dependent | effects of NMN on VEGF-mediated tube formation after knockdown of SIRT1 ([3]; Scr or SIRT1 siRNA, NMN 500 μM): completely blocked by knockdown of SIRT1 | VEGF-mediated tube formation after knockdown of SIRT3 and SIRT6 ([3]; T3 or T6 siRNA, VEGF 30 ng/mL, +/- NMN): partially rescued | disintegration of tubes ([3]; time-lapse videos, extended 18 h period): prevented the disintegration of tubes | VEGF mediated angiogenesis (tube formation) after treatment with H2O2 (HUVECs [4]): promoted VEGF mediated angiogenesis | post-exercise blood lactate (C57BL/6J mice): 3.9 mmol/L | number of VEGF-mediated outgrowths or sprouts per aortic ring [5]: doubled
